Source: patent publication US9962326B2, “Compositions comprising paulownia tomentosa wood extracts and uses thereof” (JOHNSON & JOHNSON CONSUMER INC., priority 2010, dated 2018)

Tested on: UV-induced ROS, primary human keratinocytes
Test: Inhibition of Reactive Oxygen Species Formation in primary human keratinocytes
Type: cell-based
Conditions: for Reactive Oxygen Species Produced (MFU): 60 minutes post UV
Procedure: The anti-oxidant activity of Paulownin was established via the Inhibition of Reactive Oxygen Species Formation assay described above. In this study primary human keratinocytes were substituted for human epithelial (KB) cells. The keratinocytes were plated in 96-well tissue culture treated plates at a density of 5000 cells/well in Dulbecco's modified Eagle's medium (DMEM) supplemented with 10% fetal bovine serum (Invitrogen Corp., San Diego, Calif.). After 48 hours, cells were incubated for 30 minutes with 5 μM of the hydrogen peroxide-sensitive fluorescent probe 5-(and-6)-chloromethyl-2′,7′-dichlorodihydro-fluorescein diacetate, acetyl ester (CM-H2DCFDA) (Invitrogen Corp., Carlsbad, Calif.). After incubation, the plate was rinsed to remove excess probe and Paulownin was added at the indicated concentrations. The plate was immediately read on a fluorescent plate reader set at wavelengths 485 nm excitation/530 nm emission to detect basal peroxide formation. The plate was then exposed to UV (1000W-Oriel solar simulator equipped with a 1 mm Schott WG 320 filter; UV dose applied 4.2 kJ/m^2 as measured at 360 nm). The plate was read 60 minutes post UV exposure and the data reported as mean fluorescent units (MFU).

OC12COC(c3ccc4c(c3)OCO4)C1COC2c1ccc2c(c1)OCO2 (stereo not shown) [Paulownin]
UV-induced production of ROS (in words): significantly reduce | Percent Inhibition of UV Induced ROS Formation (UV + 50 ug/ml): 65.3% | Reactive Oxygen Species Produced (MFU) (UV + 50 ug/ml): 46.3 ± 6.9 MFU | Percent Inhibition of UV Induced ROS Formation (UV + 100 ug/ml): 69.5% | Reactive Oxygen Species Produced (MFU) (UV + 100 ug/ml): 40.5 ± 6.1 MFU | Percent Inhibition of UV Induced ROS Formation (UV + 200 ug/ml): 72.1% | Reactive Oxygen Species Produced (MFU) (UV + 200 ug/ml): 37.2 ± 3.4 MFU
